According to publication PMC9727182, “Identification of pharmacokinetic markers for safflower injection using a combination of system pharmacology, multicomponent pharmacokinetics, and quantitative proteomics study” (Frontiers in Pharmacology, 2022):
One block for each compound: values may come before it.

Columns and labels:
[1] = Multicomponent pharmacokinetics in rat plasma after i.v. safflower injection (SI); settings: for concentration at 15 min / AUC(0-inf) / AUC(0-t) / Cmax / MRT inf / MRT last / Vd / clearance / half-life: male, Sprague-Dawley, rat, plasma; for concentration at 15 min: intravenous; for AUC(0-inf) / AUC(0-t) / Cmax / MRT inf / MRT last / Vd / clearance / half-life: iv
Description: The animal experiments were approved by the Animal Care and Use Committee of the College of Animal Science (College of Bee Science), Fujian Agriculture and Forestry University (Approval Number: PZCASFAFU21012). 250 ± 20 g of male Sprague-Dawley (SD) rats were provided by Lab Animal Center in Fujian Medical University (Fuzhou, China).
Ten rats were divided into three groups (Low dose group, n = 4; medium and high groups, n = 3, respectively). […] For each rat, 2 ml of physiological saline was supplemented after 30 min sampling via intraperitoneal injection. The plasma samples were obtained by centrifugation at 3,000 rpm for 10 min and stored at −20°C until analysis.
Clear supernatant (5 μl) was injected into HPLC-MS for bioanalysis.
The sample was separated on a RD-C18 column (4.6 mm × 50 mm, 3.5 μm, Zhongpu Develop, China). The mobile phase incudes water with 0.1% acetic acid (A) and acetonitrile (B). […] The column temperature, flow rate and injection volume were set at 30°C, 0.5 ml/min and 5 μl, respectively.
Non-compartmental model was used to calculate the PK parameters by DAS 3.0 software (Chinese Pharmacologic Society, Beijing, China). A single-tailed t-test was carried out in the study.

[2] = tested on: H9c2 cardiomyocytes injured by H2O2; test: Protection of cardiomyocytes injured by H2O2 (MTT); format: cell-based
Description: H9c2 cardiomyocytes obtained from Cell Bank of the Chinese Academy of Sciences (Shanghai, China) were cultured in DMEM (high glucose) supplemented with 1% P/S and 15% FBS in 5% CO2 at 37°C. The cells were collected with 0.25% trypsin, followed by re-seeding in 96-well multiplates with a density of 5×10^3 cells per well. The cell experiments were grouped as follows: normal group, model group (H2O2), administration groups and positive control groups (N-Acetyl-L-cysteine, NAC). […] After that, cells were incubated with 0.5 mg/ml of MTT for 4 h under standard condition, followed by addition of 150 µl DMSO into every well. The cell supernatants were finally removed and the optical density (OD) was recorded at 570 nm using a microplate reader (Thermo Fisher Scientific, United States). The protection rate of the compounds on H9c2 cardiomyocytes was calculated as (OD valueadministration group (or NAC group)-OD valuemodel group)/(OD valuenormal group-OD valuemodel group) ×100%.

[3] = Stability of 6 compounds of SI in rat plasma; settings: for 10h in auto-sampler vials RE: extracted rat plasma; for 6h at room temperature RE / Freeze-thaw stability (three cycles) RE / Long-term stability (-80℃,15 days) RE: rat plasma
Excerpt: The LC-MS method was validated by linearity, limits of detection (LOD), limits of quantification (LOQ), precision, accuracy, extraction recovery, matrix effect and stability of the 6 ingredients in rat plasma. Calibration curves were plotted using weighted linear regression of the peak area ratio of analyte to the IS against the corresponding nominal concentration of the analyte. LOD and LOQ were defined as the detectable concentration at which the ratio of signal to noise was more than 3 and 10, respectively. Intra- and inter-day accuracy and precision were assessed by detecting quality control (QC) samples using five replicates of rat samples at three concentration levels on one or three validation days, respectively. Accuracy and precision were expressed by relative error (RE) and relative standard deviation (RSD), respectively. The extraction recovery and matrix effect of the 6 components at above-mentioned three concentration levels were determined. Stability was assessed under the condition of placing un-treated plasma samples at room temperature for 6 h, and extracted plasma samples in auto-sampler for 10 h, as well as placing plasma samples within freeze-thaw three cycles and at −80 °C for 15 days.

[4] = Stability in diluted SI at room temperature; settings: analyzed at 0, 2, 4, 8, 12, 24, and 48 h
[5] = tested on: H9c2 cardiomyocytes injured by H2O2; test: TMT quantitative proteomics of H2O2-injured cardiomyocytes; format: cell-based; settings: 195 μM
Description: The procedures for cell culture, group and administration are similar to those in “2.7. […] Briefly, the difference is that H9c2 cells were seeded and cultured in a culture flask with a bottom area of 25 cm^2 with a density 1×10^5 cells/ml. After treatment, about 3×10^7 cells per group were collected for the next quantitative proteomics investigation, which was done by Jingjie PTM Biolabs (Hangzhou, China). All the procedures for quantitative proteomics can be found in the section of “5. Quantitative proteomics” of the Supplementary Material.
The quantitative proteomics study was carried out according to our previous report ([Li et al., 2022]). Relative quantitative values of proteins in two samples were compared via t-test. […] The identified difference proteins between groups were subjected further to principal component analysis (PCA). […] The subcellular structure location was analyzed using these proteins as objectives.

Compound: O=c1c(O)c(-c2ccc(O)cc2)oc2cc(O)cc(O)c12 [kaempferol]
concentration at 15 min ([1]; 2 ml/kg): < 0.5 ng/mL

Compound: O=C(O)/C=C/c1ccc(O)cc1 [p-CA, p-coumaric acid]
detection in rat plasma ([1]; 1 h after administration (2 ml/kg of SI), preliminary test): can be detected
AUC(0-inf) ([1]; 1 ml/kg): 67.7 ± 57.2 ng·h/mL
AUC(0-t) ([1]; 1 ml/kg): 62.5 ± 50 ng·h/mL
Cmax ([1]; 1 ml/kg): 305 ± 147 ng/mL
MRT inf ([1]; 1 ml/kg): 7.2 ± 4.2 min
MRT last ([1]; 1 ml/kg): 6 ± 3 min
Vd ([1]; 1 ml/kg): 0.11 ± 0.03 L/kg
clearance ([1]; 1 ml/kg): 20.2 mL/min/kg
half-life ([1]; 1 ml/kg): 4.8 ± 3 min
AUC(0-inf) ([1]; 2 ml/kg): 277 ± 84 ng·h/mL
AUC(0-t) ([1]; 2 ml/kg): 265 ± 89.7 ng·h/mL
Cmax ([1]; 2 ml/kg): 715 ± 85.8 ng/mL
MRT inf ([1]; 2 ml/kg): 19.8 ± 0.6 min
MRT last ([1]; 2 ml/kg): 16.2 ± 1.8 min
Vd ([1]; 2 ml/kg): 0.13 ± 0.07 L/kg
clearance ([1]; 2 ml/kg): 6.67 mL/min/kg
half-life ([1]; 2 ml/kg): 13.2 ± 3.6 min
AUC(0-inf) ([1]; 4 ml/kg): 469 ± 38.1 ng·h/mL
AUC(0-t) ([1]; 4 ml/kg): 433 ± 44.5 ng·h/mL
Cmax ([1]; 4 ml/kg): 1260 ng/mL
MRT inf ([1]; 4 ml/kg): 19.2 ± 2.4 min
MRT last ([1]; 4 ml/kg): 15 ± 2.4 min
Vd ([1]; 4 ml/kg): 0.14 ± 0.03 L/kg
clearance ([1]; 4 ml/kg): 7.5 mL/min/kg
half-life ([1]; 4 ml/kg): 12.6 ± 3 min
protection ([2]; 8.5 μM, preliminary test at maximum detected plasma concentration): absence of protection
10h in auto-sampler vials RE ([3]; spiked 150 ng/mL): -6.50%
10h in auto-sampler vials RE ([3]; spiked 400 ng/mL): 0.06%
10h in auto-sampler vials RE ([3]; spiked 10000 ng/mL): -4.10%
6h at room temperature RE ([3]; spiked 150 ng/mL): -2.67%
Freeze-thaw stability (three cycles) RE ([3]; spiked 150 ng/mL): 0.13%
Long-term stability (-80℃,15 days) RE ([3]; spiked 150 ng/mL): -0.13%
6h at room temperature RE ([3]; spiked 400 ng/mL): -2.50%
Freeze-thaw stability (three cycles) RE ([3]; spiked 400 ng/mL): 3.70%
Long-term stability (-80℃,15 days) RE ([3]; spiked 400 ng/mL): 1.40%
6h at room temperature RE ([3]; spiked 10000 ng/mL): -2.72%
Freeze-thaw stability (three cycles) RE ([3]; spiked 10000 ng/mL): -1.55%
Long-term stability (-80℃,15 days) RE ([3]; spiked 10000 ng/mL): 6.82%
Stability RSD [4]: 3.29%

Compound: O=C(O)/C=C/c1ccccc1 [trans-cinnamic acid]
Stability RSD [4]: 1.86%

Compound: hydroxysafflor yellow A [HSYA]
cell viability vs. model group ([2]; 10 μM, pretreated 24 h, 250 μM H2O2 2 h): higher cell viability than the model group
anti-H2O2 injury effect (protection rate) ([2]; 1, 5 and 10 μM): concentration-dependent
protection rate ([2]; […] μM, preliminary test at maximum detected plasma concentration): about 26%
proteins significantly downregulated vs. M group ([5]; fold change ≤1/1.5, p <0.05): 205 proteins
proteins significantly upregulated vs. M group ([5]; fold change ≥1.5, p <0.05): 148 proteins
KEGG pathway regulation ([5]; vs. M group): downregulated the ribosome pathway and upregulated the lysosome pathway
changed protein expression located at the cytoplasm ([5]; vs. M group): 41.64%
changed protein expression located at the nucleus ([5]; vs. M group): 27.48%

Continued, values first:

concentration at 15 min ([1]; 2 ml/kg): < 0.5 ng/mL
Stability RSD [4]: 2.51%
Compound: O=c1c(O)c(-c2ccc(O)c(O)c2)oc2cc(O)cc(O)c12 [quercetin]

concentration at 15 min ([1]; 2 ml/kg): < 0.5 ng/mL
Stability RSD [4]: 2.81%
Compound: O=c1ccn([C@@H]2O[C@H](CO)[C@@H](O)[C@H]2O)c(=O)[nH]1 [uridine]
